The results in this text go back to patent publication US20090123904A1, “COMPOSITION FOR PRESERVING CELLS, TISSUES, OR ORGANS, PRODUCTION PROCESS AND USES” (BIOCYDEX, SOCIETE PAR ACTIONS SIMPLIFIEE, priority 2007, published 2009).

The nature of the data set: Dissolution of the powder in ViaSpan preservation medium. The format is physicochemical. The following applies: in 10 ml of ViaSpan preservation medium, 100×-concentrated solution. Here is the method: The production process consists in taking up 15.77 mg of propane diamine-β-CD in powder form in 10 ml of the preservation medium ViaSpan® to obtain a 100×-concentrated solution.
The preparation of the close mixture is carried out according to the following operating procedure: • 4.57 mg of resveratrol is added to 9 ml of a solution that contains 2495.3 mg of propane diamine-β-CD in water, • The pH is adjusted to 7.4, • The whole is stirred for 5 to 24 hours at 24° C. and in the absence of light, • The solution is next filtered in a Millipore hydrophilic PVDF filter and then freeze-dried to provide a powder that contains a close mixture whose resveratrol/propane diamine-β-CD molar ratio is 1/111, • The freeze-dried close mixture is preserved in amber bottles at 4° C., • 15.8 mg of the close mixture is then taken up in 10 ml of the ViaSpan® preservation medium to obtain a 100×-concentrated solution.

For `NCCCNCC1OC2OC3C(CO)OC(OC4C(CO)OC(OC5C(CO)OC(OC6C(CO)OC(OC7C(CO)OC(OC8C(CO)OC(OC1C(O)C2O)C(O)C8O)C(O)C7O)C(O)C6O)C(O)C5O)C(O)C4O)C(O)C3O` (stereo not drawn) [propane diamine-β-CD, 6A-(3-aminopropylamino)-6A-deoxy-cyclomatoheptaose], the “Dissolution of the powder” value was “dissolves instantaneously”.
